Measurements taken from US12428413B2 (CHDI Foundation, Inc., priority 2019, dated 2025).
Counter-ions that a name gives are not always drawn. Like-named read-outs stand apart in the source and are kept apart here.

What was measured:
[1] = from 1 through 7 hours after instillation; cited from earlier work
[2] = system: hepatic ischemia/reperfusion in rats; details: oral pretreatment, 25% in vehicle-treated animals; cited from earlier work
[3] = system: cellular ROCK activity (cofilin phosphorylation at Ser3) in A7r5 rat smooth muscle cells; test: Cellular ROCK activity: cofilin (Ser3) phosphorylation, In-Cell Western assay; assay type: cell-based; details: Rattus norvegicus, A7R5, 1 h, 1 hour compound incubation, phospho-cofilin (Ser3), read-out: CELL_IC50
How it was run: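 A7r5 rat smooth muscle cells (3000/well, overnight) exposed to compound for 1 h at 37° C., then formaldehyde-fixed. Phospho-cofilin Ser3 detected by In-Cell Western with 800CW secondary antibody, read at 700 and 800 nm on an Odyssey imager.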

[4] = biological target: T1, human catalytic domain ROCK II protein (amino acids 5-554) with a N-terminal GST tag (Homo sapiens, UniProt O75116)
[5] = biological target: T1, human catalytic domain ROCK II protein (amino acids 5-554) with a N-terminal GST tag; test: biochemical

T1 sequence (O75116 5-554): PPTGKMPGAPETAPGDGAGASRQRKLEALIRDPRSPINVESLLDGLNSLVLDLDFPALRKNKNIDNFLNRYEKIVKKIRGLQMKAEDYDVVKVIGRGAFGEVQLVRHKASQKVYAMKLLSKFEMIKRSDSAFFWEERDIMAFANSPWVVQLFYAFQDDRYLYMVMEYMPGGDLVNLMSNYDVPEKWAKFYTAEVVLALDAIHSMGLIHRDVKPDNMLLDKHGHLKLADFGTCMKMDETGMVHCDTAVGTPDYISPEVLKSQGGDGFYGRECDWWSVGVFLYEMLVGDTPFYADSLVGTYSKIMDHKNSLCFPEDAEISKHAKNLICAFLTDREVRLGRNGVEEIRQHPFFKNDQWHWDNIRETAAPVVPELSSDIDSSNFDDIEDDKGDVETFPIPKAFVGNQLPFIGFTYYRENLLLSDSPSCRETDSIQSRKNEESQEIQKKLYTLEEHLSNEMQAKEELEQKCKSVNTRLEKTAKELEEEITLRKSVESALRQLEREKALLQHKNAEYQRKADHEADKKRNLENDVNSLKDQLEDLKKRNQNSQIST

Row | SMILES | intraocular pressure reduction [1] | survival at one week after ischemia [2] | IC50 [3] | IC50 [4] | IC50 [5]
1 | C[C@H]1CNCCCN1S(=O)(=O)c1cccc2cncc(F)c12 [Ripasudil] | Significant intraocular pressure reduction |  |  |  | 
2 | C[C@@H](N)[C@H]1CC[C@H](C(=O)Nc2ccncc2)CC1 [Example Y27632] |  | 75% |  |  | 
3 | COc1cccc([C@@H](C)NC(=O)N2CCN(c3ccncc3F)C[C@H]2C)c1F [Example 44, (R)—N—((R)-1-(2-Fluoro-3-methoxyphenyl)ethyl)-4-(3-fluoropyridin-4-yl)-2-methylpiperazine-1-carboxamide] |  |  | 323 nM | 26.3 nM | 
4 | C[C@@H]1CN(c2ccncc2F)CCN1C(=O)N[C@H](C)c1ccc(F)cc1Cl [Example 50, (R)—N—((R)-1-(2-Chloro-4-fluorophenyl)ethyl)-4-(3-fluoropyridin-4-yl)-2-methylpiperazine-1-carboxamide] |  |  | 184 nM |  | 7.8 nM
5 | CC(NC(=O)N1CCN(c2ccncc2F)CC1)c1c(F)cccc1Cl (stereo not shown) [Example 26, N-(1-(2-Chloro-6-fluorophenyl)ethyl)-4-(3-fluoropyridin-4-yl)piperazine-1-carboxamide] |  |  | 1160 nM |  | 65.5 nM
6 | COc1cccc([C@@H](C)OC(=O)N2CCN(c3ccncc3F)CC2)c1 [Example 17, (R)-1-(3-Methoxyphenyl)ethyl 4-(3-fluoropyridin-4-yl)piperazine-1-carboxylate] |  |  | 1090 nM |  | 32.3 nM
7 | C[C@H](NC(=O)N1CCN(c2ccncc2F)C[C@H]1C)c1cccn2nccc12 [Example 62, (R)-4-(3-Fluoropyridin-4-yl)-2-methyl-N—((S)-1-(pyrazolo[1,5-a]pyridin-4-yl)ethyl)piperazine-1-carboxamide] |  |  | 490 nM |  | 108 nM
8 | COc1ccc(F)c([C@@H](C)NC(=O)N2CCN(c3ccnc(F)c3)C[C@H]2C)c1 [Example 112] |  |  | 1320 nM |  | 38.3 nM
9 | C[C@@H](NC(=O)N1CCN(c2ccncc2F)CC1)c1cccc2c1CC(C)(C)O2 [Example 30, (R)—N-(1-(2,2-Dimethyl-2,3-dihydrobenzofuran-4-yl)ethyl)-4-(3-fluoropyridin-4-yl)piperazine-1-carboxamide] |  |  | 301 nM |  | 22.4 nM
10 | [2H]C([2H])([2H])Oc1cccc([C@@H](C)NC(=O)N2CCN(c3ccncc3F)C[C@H]2C)c1 [Example 82, (R)-4-(3-Fluoropyridin-4-yl)-N—((R)-1-(3-(methoxy-d3)phenyl)ethyl)-2-methylpiperazine-1-carboxamide] |  |  | 9.1 nM |  | 2.8 nM
11 | COc1ccc(F)c([C@@H](C)NC(=O)N2CCN(c3ccncc3F)C[C@H]2C)c1 [Example 134] |  |  | 108 nM |  | 6.6 nM
12 | C[C@@H](NC(=O)N1CCN(c2ccncc2F)CC1)c1cccc2c1OC(F)(F)O2 [Example 36, (R)—N-(1-(2,2-Difluorobenzo[d][1,3]dioxol-4-yl)ethyl)-4-(3-fluoropyridin-4-yl)piperazine-1-carboxamide] |  |  | 1440 nM |  | 88.1 nM
13 | Cc1cc2c([C@@H](C)NC(=O)N3CCN(c4ccncc4F)CC3)cccc2o1 [Example 31, (R)-4-(3-Fluoropyridin-4-yl)-N-(1-(2-methylbenzofuran-4-yl)ethyl)piperazine-1-carboxamide] |  |  | 189 nM |  | 3.7 nM
14 | [2H]C([2H])([2H])Oc1cccc([C@H](NC(=O)N2CCN(c3ccnc(F)c3)C[C@H]2C)C([2H])([2H])[2H])c1 [Example 116] |  |  | 127 nM |  | 6.9 nM
15 | COc1cccc([C@@H](C)OC(=O)N2CCN(c3ccnc(F)c3)C[C@H]2C)c1 [Example 2, (R)-1-(3-Methoxyphenyl)ethyl (R)-4-(2-fluoropyridin-4-yl)-2-methylpiperazine-1-carboxylate] |  |  | 1690 nM |  | 30.7 nM
16 | COc1ccc(Cl)c([C@@H](C)NC(=O)N2CCN(c3ccncc3F)CC2)c1 [Example 24, (R)—N-(1-(2-Chloro-5-methoxyphenyl)ethyl)-4-(3-fluoropyridin-4-yl)piperazine-1-carboxamide] |  |  | 902 nM |  | 37.5 nM
17 | C[C@@H]1CN(c2ccncc2F)CCN1C(=O)NCc1cccc2c1OCCO2 [Example 77, (R)—N-((2,3-Dihydrobenzo[b][1,4]dioxin-5-yl)methyl)-4-(3-fluoropyridin-4-yl)-2-methylpiperazine-1-carboxamide formate] |  |  | 191 nM |  | 7.6 nM
18 | COc1cccc(CNC(=O)N2CCN(c3ccncc3F)C[C@H]2C)c1 [Example 138] |  |  | 97.5 nM |  | 4.2 nM
